Data reported in patent US7875602B2 (priority 2005, dated 2011).
Counter-ions that a name gives are not always drawn.

Assays:
[1] = test system: PC-3 human prostate cancer cells; test: In vitro chemoradiosensitization, cell colony count; assay type: cell-based; conditions: for radiosensitivity of the cancer cell after prior exposure: 5 nM, 2 h exposure before X-rays; for Survival (%): Radiation + compound at 5 nM, 2 h drug exposure
Procedure: (§1) Chemoradiosensitizing effects of compound 13, compound 10, and compound 20 on human cancer cells were evaluated at a dose of 5 nM. PC-3 human prostate cancer cells were plated on petri dishes in triplicates were allowed to attach. After irradiation, cells were rinsed with HBSS (Hank's balanced salt solution), and covered with fresh media. Cells were cultured for 8-9 days in a 37° C. incubator. The resulting cell colonies were stained and counted. […] Other compounds of this invention can similarly be evaluated in accordance with this method.

[2] = test system: MTG-B mouse mammary adenocarcinoma tumors; test: In vivo chemoradiosensitization in tumor-bearing mice; set-up: species or system C3H/HeN mice; conditions: single i.p. injection at MTD
Procedure: To determine whether the pronounced effects of compound 13 in tissue culture could be duplicated in solid tumors, in vivo chemoradiosensitization studies were performed on C3H/HeN mice bearing MTG-B mouse mammary adenocarcinoma tumors. Prior to treatment, the tumor grew exponentially following implantation into the flanks of the mice and reached a diameter of 8 mm (268.08 cu. mm) by day 7 to 10. The mice were injected i.p. with compound 13 at MTD using a single injection and then irradiated with a radiation dose of 22 Gy 24 h after the injection. Control groups of mice bearing 8 mm diameter tumors were treated with vehicle alone, or radiation alone, or drug alone. After treatment, tumor sizes were measured by caliper every day. Daily measurement of the tumor diameters (d1, d2) in two orthogonal directions were used to calculate the tumor volume (tumor volume=π/6{(d1+d2)/2}^3) using the approximation that the tumors were spherical (results shown in FIG. 1). The values of time (days) required to grow the tumor to twice their initial size after various treatments were calculated as tumor doubling time (TDT) (±SE) for evaluating the treatment effects. Survival times and curative effects after treatment were also be observed and recorded. Other compounds of this invention can similarly be evaluated in accordance with this method.

[3] = test system: PC-3: human prostate cancer cell line; assay type: cell-based; conditions: for IC50: Homo sapiens, 72 h, read-out: IC50 (nM) PC-3
[4] = test system: DMS-14 small lung cancer cells; test: In vitro chemoradiosensitization, cell colony count; assay type: cell-based, human; conditions: for Survival (%): Radiation + compound at 5 nM, 2 h drug exposure
Procedure: as §1, with “13” for “13, compound 10, and compound 20”, “DMS-14 small lung” for “PC-3 human prostate”

[5] = Acute toxicity, MTD40 (maximum tolerated dose at day 40); assay type: in vivo, C3H/HeN mice; conditions: i.p. injection, mice checked daily for 45 days; values only in FIG. 3
Procedure: Drugs were dissolved in cremophor:alcohol (1:1) and diluted in saline to a 5% cremophor, 5% alcohol, 90% saline for i.p. injection.
Acute toxicities of a compound of this invention, compound 13, topotecan, CPT and cisplatin were evaluated on C3H/HeN mice (female, 6-8 week old, body weight 18-20 g). The MTD40 (maximum tolerated dose at day 40) values were determined. In the consecutive type studies, 6 mice were dosed at moderate doses of 10, 70, or 106.98, or 141.47, or 187.1 mg/kg. If no severe and irreversible toxicity (euthanasia is required) occurred at these doses, additional 6 animals were initiated at a dose which is 1.3225-1.5283 times higher than the previous non-toxic doses. Sequential dosages (261.94, or 366.72, or 500 mg/kg) were increased until severe and irreversible toxicity (whereby euthanasia is required) occurs. […] The result of this exercise was two dosages, one apparently nonlethal and the other lethal if severe and irreversible toxicity occurred and euthanasia was required. Six mice were dosed at each dosage. If no severe and irreversible toxicity occurred at the lower dosage and at least one with severe and irreversible toxicity at the higher dose, then the lower dose was considered to the MTD. […] Drug toxicity was evaluated on mice, checked daily for 45 days. […] Other compounds of this invention can similarly be evaluated in accordance with this method.

[6] = test system: DU-145 human prostate cancer cells; test: Chemotherapeutic activity, cell colony count after 24 hr drug exposure; assay type: cell-based; conditions: 24 hr exposure
Procedure: (§2) Chemotherapeutic effects of compound 13 on human prostate cancer cells (PC-3 and DU-145) were evaluated at dose concentrations between 0 and 10 nM. Cells plated on Petri dishes in triplicates were allowed to attach, then cells were subjected to 24 hr drug exposure at 37° C. The cells were then rinsed with HBSS ((Hank's balanced salt solution) and covered with fresh media. Cells were cultured for 8-9 days in a 37° C. incubator. The resulting cell colonies were stained and counted. Results are presented in Table 4.

[7] = test system: PC-3 human prostate cancer cells; test: as above; assay type: cell-based; conditions: 24 hr exposure
Procedure: as §2

[8] = compound plus radiation, 22 Gy 24 h after the injection

| Structure (SMILES) | melting point | radiosensitivity of the cancer cell after prior exposure [1] | Survival (%) ([1]; X-rays 0 Gy) | Survival (%) ([1]; X-rays 1 Gy) | Survival (%) ([1]; X-rays 2 Gy) | Survival (%) ([1]; X-rays 4 Gy) | IC50 [3] [nM] | also measured |
| --- | --- | --- | --- | --- | --- | --- | --- | --- |
| CC[C@@]1(OC(=O)[C@@H](C)ON=C2c3cc([N+](=O)[O-])cc([N+](=O)[O-])c3-c3c2cc([N+](=O)[O-])cc3[N+](=O)[O-])C(=O)OCc2c1cc1n(c2=O)Cc2cc3c(CN(C)C)c(O)ccc3nc2-1 (as salt: hydrochloride) [Compound 10] | 210 to 213 °C (dec.) |  |  |  |  |  |  |  |
| CC[C@@]1(OC(=O)CON=C2c3cc([N+](=O)[O-])cc([N+](=O)[O-])c3-c3c2cc([N+](=O)[O-])cc3[N+](=O)[O-])C(=O)OCc2c1cc1n(c2=O)Cc2cc3c(CN(C)C)c(O)ccc3nc2-1 (as salt: hydrochloride) [Compound 16] | 210 to 215 °C (dec.) |  |  |  |  |  |  |  |
| CC[C@@]1(OC(=O)[C@@H](C)ON=C2c3cc([N+](=O)[O-])cc([N+](=O)[O-])c3-c3c2cc([N+](=O)[O-])cc3[N+](=O)[O-])C(=O)OCc2c1cc1n(c2=O)Cc2cc3c(CN(C)C)c(O)ccc3nc2-1 [Compound 10] |  | significantly increased the radiosensitivity | 100 | 90 | 66 | 21 |  |  |
| CC[C@@]1(OC(=O)[C@@H](C)ON=C2c3cc([N+](=O)[O-])cc([N+](=O)[O-])c3-c3c2cc([N+](=O)[O-])cc3[N+](=O)[O-])C(=O)OCc2c1cc1n(c2=O)Cc2cc3ccccc3nc2-1 [Compound 13] |  | significantly increased the radiosensitivity | 100 | 83 | 60 | 22 | 5 | Survival ([2]; compound alone): 24 days; TDT (days), tumor doubling time ([2]; compound alone): 12 days; Survival [2, 8]: 90 days; TDT (days), tumor doubling time [2, 8]: 33 days; radiosensitivity of the cancer cell after prior exposure ([4]; 5 nM, 2 h exposure before X-rays): significantly increased the radiosensitivity; Survival (%) ([4]; X-rays 0 Gy): 100%; Survival (%) ([4]; X-rays 2 Gy): 44%; Survival (%) ([4]; X-rays 4 Gy): 23%; Survival (%) ([4]; X-rays 8 Gy): 3%; toxicity compared with camptothecin and topotecan [5]: Decreased Toxicity; DU-145 Cells % Survival ([6]; drug conc. 1 nM): 82%; DU-145 Cells % Survival ([6]; drug conc. 5 nM): 43%; DU-145 Cells % Survival ([6]; drug conc. 10 nM): 5%; PC-3 Cells % Survival ([7]; drug conc. 1 nM): 98%; PC-3 Cells % Survival ([7]; drug conc. 5 nM): 52%; PC-3 Cells % Survival ([7]; drug conc. 10 nM): 10% |
| CC[C@@]1(OC(=O)[C@H](C)ON=C2c3cc([N+](=O)[O-])cc([N+](=O)[O-])c3-c3c2cc([N+](=O)[O-])cc3[N+](=O)[O-])C(=O)OCc2c1cc1n(c2=O)Cc2cc3ccccc3nc2-1 [Compound 17] |  |  |  |  |  |  | 6 |  |
| CC[C@@]1(OC(=O)[C@@H](C)ON=C2c3cc([N+](=O)[O-])cc([N+](=O)[O-])c3-c3c2cc([N+](=O)[O-])cc3[N+](=O)[O-])C(=O)OCc2c1cc1n(c2=O)Cc2cc3cc(O)ccc3nc2-1 [Compound 20] | 210 to 215 °C (dec.) | significantly increased the radiosensitivity | 100 | 82 | 65 | 22 | 6 |  |
| CC[C@@]1(O)C(=O)OCc2c1cc1n(c2=O)Cc2cc3c(CN(C)C)c(O)ccc3nc2-1 [Topotecan, (20S)-9-dimethylaminomethyl-10-hydroxy CPT, reference compound] |  |  |  |  |  |  |  | IC50 (nM) PC-3 ([3]; 72 hours drug incubation, 50% inhibition of colony formation): no effect |
